This is an account of results in patent publication US7604990B2, “Methods of regulating differentiation in stem cells” (ES Cell International Pte Ltd., priority 2002, dated 2009).

The subject of the experiment is hES cells. Kind of experiment: Double immunostaining GCTM-2/PCNA of dissociated hES cells (Example 4). It counts as cell-based, human. Conditions: 4 days without serum; S1P 10 μM. How it is done:
Double staining experiments were performed using antibodies for PCNA and GCTM-2.
For immunostaining, hES-3 cells were coated on chamber slides after mechanical dissociation, in order to obtain a monolayer culture. The day following the plating, cells were incubated with the different agents in a media depleted in serum. Media was changed the 2nd day and the cells were fixed 4 days after the first treatment.
Cells were washed in PBS, fixed with MeOH, and immunostaining was performed, using the specific stem cell marker antibody GCTM-2, and the specific cell proliferation marker PCNA. Cells were then washed and the nucleuses were stained with Hoechst-33342 (1 μg/ml). Slides were mounted and then observed by fluorescent microscopy. Cells were then counted in order to determine the ratio of proliferating stem cells within the overall population.

As to `CCCCCCCCCCCCC/C=C/[C@@H](O)[C@@H](N)COP(=O)(O)O` [S1P, Sphingosine-1-phosphate], the “proliferating rate of hES cells (PCNA) versus control” value is given as “no marked difference”.
